Several values for one entry are separate records, joined by “and”; a condition that tells them apart may be missing. Identical values can stand only once. Like-named read-outs stand apart in the source and are kept apart here.
Key:
Sprague-Dawley rats = test: CFA-induced paw radiant heat hypersensitivity; assay type: in vivo, rat; conditions: rat; for inhibition in vivo at 30 mg/kg: read-out: % Reversal
Procedure: Intraplantar injection of Complete Freund's Adjuvant (CFA) in rodents results in a long-lasting inflammatory reaction, characterized by a pronounced hypersensitivity to both thermal and mechanical stimuli. This hypersensitivity peaks between 24-72 hours following injection and can last for several weeks. […] This paradigm also may be conducted with a multiple dosing or a prophylactic dosing regime designed to alter the course of hyperalgesia development. This test predicts the analgesic, anti-allodynic and antihyperalgesic effect of numerous effective clinical agents, including NSAIDS such as acetaminophen, aspirin and ibuprofen, and opioids such as morphine.
Each rat was placed in a test chamber on a warm glass surface and allowed to acclimate for approximately 10 minutes. A radiant thermal stimulus (beam of light) was then focused through the glass onto the plantar surface of each hind paw in turn. The thermal stimulus was automatically shut off by a photoelectric relay when the paw was moved or when the cut-off time was reached (20 seconds for radiant heat at ˜5 Amps). An initial (baseline) response latency to the thermal stimulus was recorded for each animal prior to the injection of CFA. Twenty-four hours following intraplantar CFA injection, the response latency of the animal to the thermal stimulus was then re-evaluated and compared to the animal's baseline response time. […] Immediately following the post-CFA latency assessment, test compound or vehicle (usually Solutol, hydroxypropyl methylcellulose, hydroxypropyl beta-cyclodextrin or PEG-400) was administered i.p. or p.o. to rats. […] The percent reversal (% R) of hypersenstivitiy was calculated according to the following formula:
% Reversal=(Treatment Response-CFA Response)/(Baseline Response-CFA Response)×100.

canine TRPM8 [1] = target: T1, canine TRPM8 (Canis lupus familiaris, UniProt Q1A7N1); test: In vitro canine TRPM8 functional assay (Ca2+-sensitive dye, FLIPR/FDSS, icilin activation); assay type: cell-based; conditions: HEK293 cells expressing canine TRPM8, icilin activation; for % I (0.5 μM): 0.5 μM compound; for IC50: eight-point dose-response, read-out: IC50; for % I (1 μM): 1 μM compound
T1 construct: expressed in transfected cells
T1 sequence (Q1A7N1 1-1104): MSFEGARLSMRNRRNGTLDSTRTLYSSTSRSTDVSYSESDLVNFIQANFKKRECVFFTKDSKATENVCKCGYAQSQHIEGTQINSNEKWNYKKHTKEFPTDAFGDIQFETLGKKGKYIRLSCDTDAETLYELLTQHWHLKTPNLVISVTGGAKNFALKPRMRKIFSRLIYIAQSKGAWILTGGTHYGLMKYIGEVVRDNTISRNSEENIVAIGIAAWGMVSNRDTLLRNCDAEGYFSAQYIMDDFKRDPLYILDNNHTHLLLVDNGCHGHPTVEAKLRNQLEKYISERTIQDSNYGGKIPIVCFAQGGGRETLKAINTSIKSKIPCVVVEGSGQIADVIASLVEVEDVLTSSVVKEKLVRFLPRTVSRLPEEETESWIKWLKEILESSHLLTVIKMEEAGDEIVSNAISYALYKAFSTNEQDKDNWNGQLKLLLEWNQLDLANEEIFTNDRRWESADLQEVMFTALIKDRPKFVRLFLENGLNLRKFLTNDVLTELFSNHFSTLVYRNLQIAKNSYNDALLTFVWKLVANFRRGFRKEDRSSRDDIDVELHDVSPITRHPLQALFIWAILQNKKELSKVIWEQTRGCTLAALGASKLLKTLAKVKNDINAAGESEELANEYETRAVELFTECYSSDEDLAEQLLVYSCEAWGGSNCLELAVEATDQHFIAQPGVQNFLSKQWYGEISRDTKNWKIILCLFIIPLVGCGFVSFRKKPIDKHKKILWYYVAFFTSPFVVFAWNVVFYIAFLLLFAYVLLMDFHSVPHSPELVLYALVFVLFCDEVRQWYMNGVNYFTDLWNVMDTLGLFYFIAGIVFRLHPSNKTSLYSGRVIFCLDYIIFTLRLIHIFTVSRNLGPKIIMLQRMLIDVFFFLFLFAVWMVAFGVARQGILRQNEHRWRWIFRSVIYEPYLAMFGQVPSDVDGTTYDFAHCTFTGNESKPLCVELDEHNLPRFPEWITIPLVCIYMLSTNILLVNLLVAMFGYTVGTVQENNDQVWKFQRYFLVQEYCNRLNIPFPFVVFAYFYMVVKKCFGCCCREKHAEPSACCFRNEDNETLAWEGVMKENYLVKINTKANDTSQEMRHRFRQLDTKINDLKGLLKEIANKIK
In short: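 Icilin challenge (final concentration producing ~80% of maximal response) followed a 5 min compound exposure in canine TRPM8-HEK293 cells dye-loaded with Calcium 3. Intracellular Ca2+ was read on FLIPR/FDSS. EC50 and IC50 values came from nonlinear sigmoidal dose-response fits of basal-subtracted, percent-of-maximum data averaged over quadruplicates.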

male SD rats = test: Chronic constriction injury (CCI) model of neuropathic pain, acetone-induced hypersensitivity; assay type: in vivo; conditions: rat; 30 mg/kg p.o.; preRx 1 hr
Procedure: Through the mesh floor a series of five applications of acetone (0.05 mL/application) was sprayed onto the bottom of the paw using a multidose syringe device. A positive response took the form of an abrupt withdrawal or lifting of the paw. The percentage of positive responses from the five trials represented the individual's overall response that was then averaged over the entire treatment group. […] An ascending dose response relationship (as in Table 10 below) was generated by addition of successive doses of test compound followed by re-assessment of behavior.

canine TRPM8 [2] = target: T1, canine TRPM8; test: TRPM8 patch clamp assay (whole-cell, HEK293 cells); assay type: cell-based; conditions: IC50, mode of activation Menthol (100 μM), HEK293 cells stably transfected with canine TRPM8, 100 μM menthol, 22° C.
Procedure: For patch clamp experiments, HEK293 cells stably transfected with canine TRPM8 were cultured in DMEM supplemented with 10% fetal bovine serum, 100 units/ml penicillin, 100 μg/ml streptomycin and 1 mg/ml G418. Cells were maintained at 37° C. and in 5% CO2.
The extracellular solution contained (in mM): NaCl, 132; EGTA, 1; KCl, 5.4; MgCl2, 0.8; HEPES, 10; glucose, 10; pH=7.4. Recordings were performed using the conventional whole-cell patch clamp technique, 1-2 days after plating cells onto glass coverslips at densities appropriate for single cell recording. Currents were amplified by a patch clamp amplifier and filtered at 2 kHz (Axopatch 200B, Molecular Devices, Union City, Calif.). Menthol (100 μM) was applied to the cell at 0.5 ml/min via a gravity-fed perfusion system. Recordings involving menthol activation were performed at 22° C.
In experiments where temperatures were varied, temperature ramps were generated by cooling the perfusate in an in-line cooler (Model SC-20, Warner Instruments, Hamden, Conn.) controlled by a temperature controller (Model CL-100, Warner Instruments). The temperature in the vicinity of the recorded cell was measured with a custom-made miniature thermo-microprobe connected to a monitoring thermometer (Model TH-8, Physitemp, Clifton, N.J.), and sampled using Digidata 1322A and pClamp 9.0 (Molecular Devices), as were the currents concurrently measured in the whole-cell patch clamp mode. The current was continuously sampled (at 100 Hz) at a holding potential of −60 mV.
Compounds were diluted from 10 mM DMSO stocks (stored at −20° C.) into an extracellular solution either containing 100 μM menthol or subjecting to cooling. Increasing concentrations of a compound were applied to a cell in a cumulative manner and concentration-dependent responses were measured after steady-state activation was achieved by either 100 μM menthol or cooling to 10° C. A saturating concentration of a reference antagonist was applied at the end of an experiment (either in the presence of 100 μM menthol or 10° C. temperature) to establish the baseline from which all the other measurements were subtracted.
Percentage inhibition by a compound was calculated as follows: 100×(1−Icomp/I0); where Icomp and I0 are steady-state current amplitudes in either the presence or absence of a concentration of the compound.

Male Sprague Dawley rats = test: Inhibition of icilin-induced wet-dog shakes in rats; assay type: in vivo; conditions: rat; 30 mg/kg i.p.; 15′ pre icilin; wet-dog shakes vs vehicle
[3] = 30 mg/kg p.o., time 2 h (printed 2 h or 2)

Structure (SMILES) | % I (0.5 μM) (canine TRPM8 [1]) | IC50 (canine TRPM8 [1]) | % Reversal (Sprague-Dawley rats; 30 mg/kg p.o., time 1 h) | other results
CCOP(=O)(OCC)C(Cc1ccc(F)c(Cl)c1)c1sc2ccccc2c1Br (racemic) [Cpd 244] | 103% | 28 nM | – | % Reversal (Sprague-Dawley rats; [3]): 45%
CC(C)OP(=O)(OC(C)C)C(Cc1cc(C(F)(F)F)ccc1F)c1sc2ccccc2c1Br (stereo not drawn) [Cpd 335] | 102% | 35 nM | 0% | –
CC(C)OP(=O)(OC(C)C)[C@H](Cc1ccc(F)c(F)c1)c1sc2ccccc2c1Br [Cpd 235, (R)-[1-(3-Bromo-benzo[b]thiophen-2-yl)-2-(3,4-difluoro-phenyl)-ethyl]-phosphonic acid diisopropyl ester] | – | 253 nM | – | % of Allodynic Baseline (male SD rats): 34.3%; IC50 (canine TRPM8 [2]): 59.2 nM; inhibition in vivo at 30 mg/kg (Sprague-Dawley rats; po, 30 mg/kg p.o., time 1 h): 45%
CCOP(=O)(OCC)C(Cc1ccc(SC)cc1)c1sc2ccccc2c1Cl (racemic) [Cpd 299] | 101% | 141 nM | 23% | –
CC(C)OP(=O)(OC(C)C)C(Cc1ccc(F)cc1)c1sc2ccccc2c1Br (stereo not drawn) [Cpd 197] | 102% | – | – | % Reversal (Sprague-Dawley rats; [3]): 23%; % I (1 μM) (canine TRPM8 [1]): 100%
Cc1c(C(Cc2ccc(F)c(F)c2)P(=O)(OCC(C)(C)C)OCC(C)(C)C)sc2ccccc12 (stereo not drawn) [Cpd 53, [2-(3,4-Difluoro-phenyl)-1-(3-methyl-benzo[b]thiophen-2-yl)-ethyl]-phosphonic acid bis-(2,2-dimethyl-propyl) ester] | – | 220 nM and 260 nM | – | % Inhibition (Male Sprague Dawley rats): 65.6%; inhibition in vivo at 30 mg/kg (Sprague-Dawley rats; ip, 0.5 h, 30 mg/kg i.p., time 30′): 77%; inhibition in vivo at 30 mg/kg (Sprague-Dawley rats; po, 30 mg/kg p.o., time 2 h (printed 2 h or 2)): 44%; inhibition at 1 µM (canine TRPM8 [1]; HEK293, 1 μM compound, read-out: % I (1 μM)): 100%
CC(C)OP(=O)(OC(C)C)C(Cc1ccc(C(F)(F)F)cc1)c1sc2ccccc2c1Br (stereo not drawn) [Cpd 336] | 102% | 43 nM | 64% | –
CC(C)OP(=O)(OC(C)C)[C@H](Cc1ccc(F)c(C(F)(F)F)c1)c1sc2ccccc2c1Br [Cpd 243, (R)-[1-(3-Bromo-benzo[b]thiophen-2-yl)-2-(4-fluoro-3-trifluoromethyl-phenyl)-ethyl]-phosphonic acid diisopropyl ester] | – | 89 nM | – | inhibition at 0.5 µM (canine TRPM8 [1]; HEK293, 0.5 μM compound, read-out: % I (0.5 μM)): 80%
CC(C)OP(=O)(OC(C)C)C(Cc1ccc(C(F)(F)F)cc1F)c1sc2ccccc2c1Cl (stereo not drawn) [Cpd 191] | 104% | 125 nM | – | –
CCOP(=O)(OCC)C(Cc1cc2ccccc2s1)c1cc2ccccc2s1 (stereo not drawn) [Cpd 90] | – | 540 nM | – | % I (1 μM) (canine TRPM8 [1]): 89%
